Measured values: US20250032387A1, “A PERSONAL CARE OR PHARMACEUTICAL COMPOSITION” (Conopco, Inc., d/b/a UNILEVER, priority 2021, published 2025)

What follows are compounds tested on Human epidermal keratinocytes (assay: in vitro scratch-wound assay (keratinocyte migration)). Settings: primary human epidermal keratinocytes, 24 h pre-culture with active, 24 h further culture, wound area ratio divided by control (control = 1), active level wt % of medium.
Assay type: cell-based
Protocol: The migration of epidermal keratinocytes is the basis for skin re-epithelialization during wound healing. The in vitro scratch-wound assay using monolayers of primary human epidermal keratinocytes is a straightforward and effective method to assess the migratory capacity. Human epidermal keratinocytes (lot.: Ep21012001, Biocell) were seeded into 6-well plates, at 4.5×10^5 cells per well and maintained in a 37° C. incubator in an atmosphere of 5% of carbon dioxide in EpiLife™ Keratinocyte Medium until the cells reaching 70 to 80% of confluence in the well. Then, the cells were cultured by fresh medium (as control) or fresh medium supplemented with different actives for 24 hours. The cells were scratched by a […] of pipette tip in an identical manner to simulate the formation of wound, and images for the cells were taken immediately to record the wound. The cells were cultured again by identical fresh medium or fresh medium supplemented with different actives at 37° C. for 24 hours and images for the cells were taken again. The ratio of area before and after the further culture were obtained by using the software Image-pro plus. The relative migration rates for difference actives were calculated by dividing the values of control and were summarized in Table 1.
In the case of Lysine carboxymethyl cysteinate, the Relative migration rate is reported as 1.15. With `NC(=O)c1cccnc1` [C, Niacinamide] the Relative migration rate was 1.08. `NC(=O)c1cccnc1` [A, Niacinamide] was tested, and the Relative migration rate was 0.94. With `NC(=O)c1cccnc1` [B, Niacinamide] the Relative migration rate was 1.19. Work on Lysine carboxymethyl cysteinate [D] yielded a Relative migration rate of 1.04.
